According to patent EP0265400A2, “Topical radioprotective gel for mucosa” (priority 1986, dated 1988):
Where “and” joins values, the source holds several entries; their conditions need not be identical. Equal entries are not always repeated. Entries after “also recorded” stand apart in the source; their conditions may differ. Positions of bridges follow the written chain, without caps; N, C: chain ends. Residues, ends and D or L forms follow the SMILES beside them.

Legend:
[1] = Studies of systemic circulation (dose titration) after rectal application of the gel: arterial pressure and pulse rate; type: in vivo, Wistar rats
Description: The concentration of vasoconstrictive substance in the radioprotective gels according to the invention was determined according to the desire to provide a local vasoconstrictive effect (with subsequent hypoxia) in the mucosa, but without general secondary effect, such as blood pressure increase and bradycardia. To achieve this, dose titration studies of the different vasoconstrictive substances were carried out, i.e. the dose just below the threshold of general circulatory response was defined. Due to interaction (electrostatic binding) between the active substance and the different thickening agents, the dose for a specific vasoconstrictive substance varied depending upon the thickening agent employed.
For studies of systematic circulation, Wistar rats (body weight 177-296 g) were used. TGLVP was administered rectally by means of a Nelaton-Foley catheter inserted through the anus until the balloon was 5 cm away from the anus. The balloon was then filled to ensure that the catheter stayed in position and to prevent TGLVP from reaching the upper parts of the bowel. TGLVP was dissolved in a 1% by weight aqueous solution of sodium carboxymethyl cellulose (CMC) and was in contact with all parts of the mucosa during the test. The volume applied amounted to half a milliliter. Three dose levels of TGLVP were tested, i.e. 800 µg, 1600 µg and 3200 µg. For each dose level, use was made of five rats and a corresponding number of controls which were given CMC solution only. For anaesthesia, nembutal was used intraperitoneally. Mean values for arterial pressure and puls rate were recorded by means of a catheter in the aorta via the femoral artery.
Dose titration was carried out in a similar manner on AVP, LVP, TGLVP with other thickening agents, Angiotensin II and norepinephrine.

[2] = system: Irradiation-induced lesions in the mucosa; assay: Radioprotective effect of rectally applied gel on irradiated rectal mucosa: histological grading and body weight; type: in vivo, Wistar rats; details: for Body weight change / Change of glandular structure / Fibrosis / Ulceration - abscessa development in crypts / Sum of parameters: one value per rat; for Sum of parameters: histological grading
Description: For studies of the radioprotective effect of TGLVP Wistar rats (body weight 187-394 g) were used and treated in pairs at the same time. In each pair, one rat was treated rectally with TGLVP, while the other rat, the control rat, was given CMC solution rectally. The gels were applied in the same manner as described above. For anaesthesia, nembutal was given intraperitoneally. The rats were irradiated with 240 kV X-rays (0.2 Cu filtration), using AP and PA fields in size 4 × 3 cm. This gave a uniform dose in the lower part of the abdomen corresponding to the position of the rectum. 10 Gy were given on day 1, and 10 Gy on day 4. The rats were killed 14 days after the treatment, and the rectum was removed for histological analysis. The rats were weighed before treatment and when they were killed. 10 rats were treated with 1600 µg TGLVP 15 min before irradiation (Tables IV and V) 5 rats were treated with 800 µg TGLVP 15 min before irradiation (Table V) 10 rats were given 1600 µg TGLVP 30 min before treatment (Table III) 5 rats were given 3200 µg TGLVP 15 min before treatment (Table I) 5 rats were given 3200 µg TGLVP 30 min before treatment (Table II)
Histological grading (sum of parameters) was performed in accordance with an evaluation system in which 0 is the normal structure and 6 indicates maximum change. Irradiation-induced lesions in the mucosa were determined arbitrarily by means of the following parameters: • 1: The extent of fibrosis in the mucosa and submucosa. • 2: The change of glandular structure in the mucosa. • 3: Ulcerations in the mucosa or abscesses in mucosal crypts.

[3] = TGLVP 3200 µg/g in 1 weight% carboxymethyl cellulose, dose 1600 µg, 30 min before irradiation
[4] = TGLVP 3200 µg/g in 1 weight% carboxymethyl cellulose, dose 1600 µg, 30 min before irradiation, grade 0-6
[5] = TGLVP 6400 µg/g in 1 weight% carboxymethyl cellulose, dose 3200 µg, 15 min before irradiation, grade 0-6
[6] = TGLVP 6400 µg/g in 1 weight% carboxymethyl cellulose, dose 3200 µg, 30 min before irradiation
[7] = TGLVP 6400 µg/g in 1 weight% carboxymethyl cellulose, dose 3200 µg, 30 min before irradiation, grade 0-6

Which results are given for NCCCC[C@H](NC(=O)[C@@H]1CCCN1C(=O)[C@@H]1CSSC[C@H](NC(=O)CNC(=O)CNC(=O)CN)C(=O)N[C@@H](Cc2ccc(O)cc2)C(=O)N[C@@H](Cc2ccccc2)C(=O)N[C@@H](CCC(N)=O)C(=O)N[C@@H](CC(N)=O)C(=O)N1)C(=O)NCC(N)=O [TGLVP, triglycyl-lysine-vasopressin] (H-GGGCYFQNCPKG-NH2; disulfide 4-9)?
circulatory changes ([1]; 128 µg in 0.9% by weight hydroxypropyl cellulose solution): without changes; circulatory changes ([1]; 128 µg in 1.2% by weight hydroxyethyl cellulose solution): no circulatory changes; circulatory changes ([1]; 256 µg in 0.9% by weight hydroxypropyl cellulose solution): without changes; blood pressure ([1]; 256 µg in 1.2% by weight hydroxyethyl cellulose solution, at 75 and 90 minutes after application): gave a rise in blood pressure; pulse rate ([1]; 256 µg in 1.2% by weight hydroxyethyl cellulose solution, at 5 minutes after application): decrease in pulse rate; circulatory changes (pulse) ([1]; 512 µg in 0.9% by weight hydroxypropyl cellulose solution, 15-120 minutes after application): gave a bradycardia; pulse rate ([1]; 512 µg in 1.2% by weight hydroxyethyl cellulose solution, 10-45 minutes after application): bradycardia; blood pressure ([1]; 512 µg in 1.2% by weight hydroxyethyl cellulose solution, 30 and 45 minutes after application): gave a rise in blood pressure; systemic circulatory response in the form of blood pressure increase or lower pulse ([1]; 800 µg rectally in 1% by weight sodium carboxymethyl cellulose (CMC)): no systemic circulatory response; systemic circulatory response in the form of blood pressure increase or lower pulse ([1]; 1600 µg rectally in 1% by weight sodium carboxymethyl cellulose (CMC)): no systemic circulatory response; also recorded: without general circulatory responses; systemic circulatory response in the form of blood pressure increase or lower pulse ([1]; 3200 µg rectally in 1% by weight sodium carboxymethyl cellulose (CMC)): caused blood pressure increase in several animals; function of the gel in radioprotective experiments ([2]; 1600-6400 µg per g of 1% by weight carboxymethyl cellulose in sterile deionised water): found to function as intended; Body weight change [2, 3]: 14 g and 3 g and 18 g and 7 g and 5 g; Change of glandular structure [2, 4]: 2 (4×) and 4; Fibrosis [2, 4]: 4 (4×) and 2; Ulceration - abscessa development in crypts [2, 4]: 0 (3×) and 2 (2×); Sum of parameters [2, 3]: 6 (4×) and 10; Fibrosis ([2]; TGLVP 6400 µg/g in 1 weight% carboxymethyl cellulose, dose 3200 µg rectally 15 min before irradiation (10 Gy day 1 and day 4), grade 0 normal, 6 maximum change, killed 14 days after treatment): 4 and 2 (4×); Body weight change ([2]; TGLVP 6400 µg/g in 1 weight% carboxymethyl cellulose, dose 3200 µg, 15 min before irradiation, before treatment vs when killed): 9 g and 4 g and 7 g and 15 g and 12 g; Change of glandular structure [2, 5]: 4 and 2 (2×) and 0 (2×); Ulceration - abscessa development in crypts [2, 5]: 4 and 2 and 0 (3×); Sum of parameters ([2]; TGLVP 6400 µg/g in 1 weight% carboxymethyl cellulose, dose 3200 µg, 15 min before irradiation): 12 and 6 and 2 (2×) and 4; Body weight change [2, 6]: 24 g and 7 g and 13 g and -2 g and 38 g; Change of glandular structure [2, 7]: 0 (2×) and 4 and 2 (2×); Fibrosis [2, 7]: 4; Ulceration - abscessa development in crypts [2, 7]: 0 (2×) and 4 and 2 (2×); Sum of parameters [2, 6]: 4 and 12 and 6 (2×) and 8; radioprotective effect ([2]; dose of 1600 µg, rats): maximum radioprotective effect; radioprotection to the mucosa as compared with the controls ([2]; dose of 3200, 1600 or 800 µg, irradiation 15 or 30 min after administration, summary of Tables I-V): gave radioprotection to the mucosa; radioprotection: effect of higher dose or longer time ([2]; increase of dose from 1600 µg to 3200 µg, or of time from 15 to 30 min, compared with 1600 µg at 15 min, Tables I-IV): does not seem to give a better result; protection, from body weight values ([2]; increasing the dose from 800 µg to 1600 µg, 15 min before irradiation, Table V): improved protection

For NC[C@H](O)c1ccc(O)c(O)c1 [norepinephrine], which “function of the gel in radioprotective experiments” value (shortened to “function of the gel”) ([2]; 2 mg per g of 0.6% by weight hydroxyethyl cellulose in sterile deionised water) is on record?
The value was “found to function as intended”.

What about the “cases with radioprotection to the mucosa, as compared with the controls” value ([2]; dose of 1 mg, irradiation 15 min after administration, Table IX) of the same compound?
The value was 5 out of 6.

What does the source list for Angiotensin II?
function of the gel in radioprotective experiments ([2]; 250 µg per g of 0.6% by weight hydroxyethyl cellulose in sterile deionised water): found to function as intended; cases with radioprotection to the mucosa, as compared with the controls ([2]; dose of 125 µg, irradiation 15 min after administration, Table VIII): 5 out of 6

For “Angiotensin II (DRVYIHPF; Angiotensin-2; UniProt P01019 25-32, looked up)”, which “changes in blood pressure or pulse rate” value ([1]; doses of 0.1 µg to 500 µg in 0.6% by weight hydroxyethyl cellulose solution, even at the highest dose level, 75 or 140 minutes of follow-up) is on record?
The value was “no significant changes in blood pressure or pulse rate”.

Which “influence on blood pressure” value ([1]; 25 µg in 0.2% by weight carboxypolymethylene solution, pulse rate not measured) does the source give for arginine-vasopressin [AVP] here?
The value was “without any significant influence on blood pressure”.

And the “influence on blood pressure” value ([1]; 50 µg in 0.2% by weight carboxypolymethylene solution, pulse rate not measured)?
Its value is “without any significant influence on blood pressure”.

What about the “function of the gel” value ([2]; 10 µg per g of 0.2% by weight carboxypolymethylene in sterile deionised water) of the same compound?
Its value is “found to function as intended”.

What about the “radioprotection to the mucosa as compared with the controls” value ([2]; dose of 10 µg, irradiation 10 min after administration, Table VI, histological grading only) of the same compound?
The value was “gave radioprotection to the mucosa”.

With lysine-vasopressin [LVP] as the compound, how does the “changes in systemic circulation” value ([1]; 4 µg in 1.2% by weight hydroxyethyl cellulose solution) read?
The value was “without significant changes in systemic circulation”.

What about the “changes in systemic circulation” value ([1]; 8 µg in 1.2% by weight hydroxyethyl cellulose solution) of the same compound?
The value was “without significant changes in systemic circulation”.

And the “change in blood pressure” value ([1]; 10 µg in 0.2% by weight carboxypolymethylene solution, pulse rate not measured)?
Its value is “without any significant change in blood pressure”.

What about the “change in blood pressure” value ([1]; 10 µg in 1% by weight sodiumcarboxymethyl cellulose (CMC) solution, pulse rate not measured) of the same compound?
Its value is “without any change in blood pressure”.

What about the “changes in systemic circulation” value ([1]; 16 µg in 1.2% by weight hydroxyethyl cellulose solution) of the same compound?
The value was “without significant changes in systemic circulation; also recorded: caused no significant change in systemic circulation”.

What about the “change in blood pressure” value ([1]; 20 µg in 0.2% by weight carboxypolymethylene solution, pulse rate not measured) of the same compound?
Its value is “without any significant change in blood pressure”.

What about the “change in blood pressure” value ([1]; 20 µg in 1% by weight sodiumcarboxymethyl cellulose (CMC) solution, pulse rate not measured) of the same compound?
Its value is “without any change in blood pressure”.

And the pulse rate ([1]; 32 µg in 1.2% by weight hydroxyethyl cellulose solution)?
The pulse rate was “No decrease in pulse rate was noted”.

And the blood pressure ([1]; 32 µg in 1.2% by weight hydroxyethyl cellulose solution, 5, 10, 15, 20, 25, 30, 45, 75 and 90 minutes after application)?
Its blood pressure is “caused a rise in blood pressure”.

What about the “change in blood pressure” value ([1]; 40 µg in 0.2% by weight carboxypolymethylene solution, significant at 10, 15, 20, 25, 45 and 60 minutes after application) of the same compound?
Its value is “gave a rise in blood pressure”.

What about the “change in blood pressure” value ([1]; 40 µg in 1% by weight sodiumcarboxymethyl cellulose (CMC) solution, pulse rate not measured) of the same compound?
The value was “without any change in blood pressure”.

And the “change in blood pressure” value ([1]; 80 µg in 0.2% by weight carboxypolymethylene solution, significant 5-60 minutes after application)?
Its value is “gave a rise in blood pressure”.

What about the “change in blood pressure” value ([1]; 80 µg in 1% by weight sodiumcarboxymethyl cellulose (CMC) solution, 5-45 minutes after application) of the same compound?
Its value is “caused a rise in blood pressure”.

What about the “function of the gel” value ([2]; 32 µg per g of 1.2% by weight hydroxyethyl cellulose in sterile deionised water) of the same compound?
The value was “found to function as intended”.

And the “radioprotection to the mucosa” value ([2]; dose of 16 µg, irradiation 15 min after administration, Table VII)?
The value was “gave radioprotection to the mucosa”.
